target: T1, Chitinase B (Serratia marcescens, UniProt P11797); assay: Inhibition of Serratia marcescens chitinase B
T1 sequence (P11797 whole entry): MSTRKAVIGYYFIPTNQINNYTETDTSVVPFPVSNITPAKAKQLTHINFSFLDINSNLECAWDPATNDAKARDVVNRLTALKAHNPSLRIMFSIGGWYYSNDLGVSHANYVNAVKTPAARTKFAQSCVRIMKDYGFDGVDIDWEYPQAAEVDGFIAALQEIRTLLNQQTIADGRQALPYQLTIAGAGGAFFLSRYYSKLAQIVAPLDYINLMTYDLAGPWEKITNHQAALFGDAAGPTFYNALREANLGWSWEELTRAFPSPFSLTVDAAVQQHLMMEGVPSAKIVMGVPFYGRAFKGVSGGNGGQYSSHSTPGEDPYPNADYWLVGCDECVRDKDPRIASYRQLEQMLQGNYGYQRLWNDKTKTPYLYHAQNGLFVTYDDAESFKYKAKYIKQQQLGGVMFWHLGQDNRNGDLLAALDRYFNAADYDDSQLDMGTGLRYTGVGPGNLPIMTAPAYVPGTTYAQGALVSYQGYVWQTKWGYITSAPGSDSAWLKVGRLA

Q: For `CNC(=O)NC(N)=NCCC[C@@H]1NC(=O)[C@@H](CC(C)C)NC(=O)C[C@@H](C(=O)O)NC(=O)C[C@@H](C(=O)O)NC(=O)[C@H](Cc2ccccc2)N(C)C1=O`, which IC50 is on record?
A: Its IC50 is 1.9 µM.

Q: `CNC(=O)NC(N)=NCCC[C@@H]1NC(=O)[C@@H](C(C)C)NC(=O)C[C@@H](C(=O)O)NC(=O)C[C@@H](C(=O)O)NC(=O)[C@H](Cc2ccccc2)N(C)C1=O` was tested. Which IC50 did it give?
A: The IC50 was 6.1 µM.

Q: With `CNC(=O)NC(N)=NCCC[C@@H]1NC(=O)[C@@H](Cc2ccccc2)NC(=O)C[C@@H](C(=O)O)NC(=O)C[C@@H](C(=O)O)NC(=O)[C@H](Cc2ccccc2)N(C)C1=O` as the compound, how does the IC50 read?
A: The IC50 was 9.9 µM.

Q: For `CNC(=O)NC(=N)NCCC[C@@H]1NC(=O)[C@@H](CCSC)NC(=O)C[C@@H](C(=O)O)NC(=O)C[C@@H](C(=O)O)NC(=O)[C@H](Cc2ccccc2)N(C)C1=O`, which IC50 is on record?
A: Its IC50 is 10 µM.

Q: How did the IC50 turn out when `CNC(=O)NC(=N)NCCC[C@@H]1NC(=O)[C@@H](Cc2c[nH]c3ccccc23)NC(=O)C[C@@H](C(=O)O)NC(=O)C[C@@H](C(=O)O)NC(=O)[C@H](Cc2ccccc2)N(C)C1=O` was run?
A: Its IC50 is 4.5 µM.

Q: Which IC50 does the source give for `CNC(=O)NC(N)=NCCC[C@@H]1NC(=O)[C@@H](C)NC(=O)C[C@@H](C(=O)N2CCC(Cc3ccccc3)CC2)NC(=O)C[C@@H](C(=O)O)NC(=O)[C@H](Cc2ccccc2)N(C)C1=O` here?
A: The IC50 was 1.3 µM.

Q: For `CNC(=O)NC(N)=NCCC[C@@H]1NC(=O)[C@@H](CC(C)C)NC(=O)C[C@@H](C(=O)N2CCC(Cc3ccccc3)CC2)NC(=O)C[C@@H](C(=O)O)NC(=O)[C@H](Cc2ccccc2)N(C)C1=O`, which IC50 is on record?
A: The IC50 was 0.23 µM.

From ChEMBL document CHEMBL1151904, “Computer-aided rational molecular design of argifin-derivatives with increased inhibitory activity against chitinase B from Serratia marcescens” (Bioorg Med Chem Lett, 2009)
